PubChem BioAssay AID1259407 (Chemical Carcinogenesis Research Information System (CCRIS), 2018)
Activity calls are given as the source filed them. The rule behind the calls is not given here.

System: CCRIS mutagenicity, Ames/micronucleus/aberration tests
Assay: CCRIS mutagenicity studies

Measured: mutagenic call

C1COCCO1
inactive: Test System: AMES SALMONELLA TYPHIMURIUM, Strain/Indicator: TA1535, Metabolic Activation: RAT LIVER S-9, PHENOBARBITAL AND BETA-NAPHTHOFLAVONE (30%), Method: PREINCUBATION inactive; negative | Test System: AMES SALMONELLA TYPHIMURIUM, Strain/Indicator: TA1535, Metabolic Activation: RAT LIVER S-9, PHENOBARBITAL AND BETA-NAPHTHOFLAVONE, Method: GAS EXPOSURE inactive; negative | Test System: AMES SALMONELLA TYPHIMURIUM, Strain/Indicator: TA1537, Metabolic Activation: HAMSTER LIVER S-9, PHENOBARBITAL AND BETA-NAPHTHOFLAVONE (10%), Method: PREINCUBATION inactive; negative | Test System: AMES SALMONELLA TYPHIMURIUM, Strain/Indicator: TA1537, Metabolic Activation: HAMSTER LIVER S-9, PHENOBARBITAL AND BETA-NAPHTHOFLAVONE (30%), Method: PREINCUBATION inactive; negative | Test System: AMES SALMONELLA TYPHIMURIUM, Strain/Indicator: TA1537, Metabolic Activation: NONE, Method: GAS EXPOSURE inactive; negative | Test System: AMES SALMONELLA TYPHIMURIUM, Strain/Indicator: TA1537, Metabolic Activation: NONE, Method: PREINCUBATION inactive; negative | Test System: AMES SALMONELLA TYPHIMURIUM, Strain/Indicator: TA1537, Metabolic Activation: NONE, Method: STANDARD PLATE inactive; negative | Test System: AMES SALMONELLA TYPHIMURIUM, Strain/Indicator: TA1537, Metabolic Activation: RAT LIVER S-9, PHENOBARBITAL AND 5,6-BENZOFLAVONE, Method: PREINCUBATION inactive; negative | Test System: AMES SALMONELLA TYPHIMURIUM, Strain/Indicator: TA1537, Metabolic Activation: RAT LIVER S-9, PHENOBARBITAL AND 5,6-BENZOFLAVONE, Method: STANDARD PLATE inactive; negative | Test System: AMES SALMONELLA TYPHIMURIUM, Strain/Indicator: TA1537, Metabolic Activation: RAT LIVER S-9, PHENOBARBITAL AND BETA-NAPHTHOFLAVONE (10%), Method: PREINCUBATION inactive; negative | Test System: AMES SALMONELLA TYPHIMURIUM, Strain/Indicator: TA1537, Metabolic Activation: RAT LIVER S-9, PHENOBARBITAL AND BETA-NAPHTHOFLAVONE (30%), Method: PREINCUBATION inactive; negative | Test System: AMES SALMONELLA TYPHIMURIUM, Strain/Indicator: TA1537, Metabolic Activation: RAT LIVER S-9, PHENOBARBITAL AND BETA-NAPHTHOFLAVONE, Method: GAS EXPOSURE inactive; negative | Test System: E.COLI, Strain/Indicator: WP2 (PKM101), Metabolic Activation: NONE, Method: PREINCUBATION inactive; negative | Test System: E.COLI, Strain/Indicator: WP2 (PKM101), Metabolic Activation: NONE, Method: STANDARD PLATE inactive; negative | Test System: E.COLI, Strain/Indicator: WP2 (PKM101), Metabolic Activation: RAT LIVER S-9, PHENOBARBITAL AND 5,6-BENZOFLAVONE, Method: PREINCUBATION inactive; negative | Test System: E.COLI, Strain/Indicator: WP2 (PKM101), Metabolic Activation: RAT LIVER S-9, PHENOBARBITAL AND 5,6-BENZOFLAVONE, Method: STANDARD PLATE inactive; negative | Test System: E.COLI, Strain/Indicator: WP2 UVRA (PKM101), Metabolic Activation: NONE, Method: PREINCUBATION inactive; negative | Test System: E.COLI, Strain/Indicator: WP2 UVRA (PKM101), Metabolic Activation: NONE, Method: STANDARD PLATE inactive; negative | Test System: E.COLI, Strain/Indicator: WP2 UVRA (PKM101), Metabolic Activation: RAT LIVER S-9, PHENOBARBITAL AND 5,6-BENZOFLAVONE, Method: STANDARD PLATE inactive; negative | Test System: E.COLI, Strain/Indicator: WP2 UVRA(PKM101), Metabolic Activation: RAT LIVER S-9, PHENOBARBITAL AND 5,6-BENZOFLAVONE, Method: PREINCUBATION inactive; negative | Test System: E.COLI, Strain/Indicator: WP2UVRA/PKM101, Metabolic Activation: NONE, Method: GAS EXPOSURE inactive; negative | Test System: E.COLI, Strain/Indicator: WP2UVRA/PKM101, Metabolic Activation: RAT LIVER S-9, PHENOBARBITAL AND BETA-NAPHTHOFLAVONE, Method: GAS EXPOSURE inactive; negative | Test System: E.COLI, Strain/Indicator: WP2UVRA, Metabolic Activation: HAMSTER LIVER S-9, PHENOBARBITAL AND BETA-NAPHTHOFLAVONE (10%), Method: PREINCUBATION inactive; negative | Test System: E.COLI, Strain/Indicator: WP2UVRA, Metabolic Activation: HAMSTER LIVER S-9, PHENOBARBITAL AND BETA-NAPHTHOFLAVONE (30%), Method: PREINCUBATION inactive; negative | Test System: E.COLI, Strain/Indicator: WP2UVRA, Metabolic Activation: NONE, Method: GAS EXPOSURE inactive; negative | Test System: E.COLI, Strain/Indicator: WP2UVRA, Metabolic Activation: NONE, Method: PREINCUBATION inactive; negative | Test System: E.COLI, Strain/Indicator: WP2UVRA, Metabolic Activation: RAT LIVER S-9, PHENOBARBITAL AND BETA-NAPHTHOFLAVONE (10%), Method: PREINCUBATION inactive; negative | Test System: E.COLI, Strain/Indicator: WP2UVRA, Metabolic Activation: RAT LIVER S-9, PHENOBARBITAL AND BETA-NAPHTHOFLAVONE (30%), Method: PREINCUBATION inactive; negative | Test System: E.COLI, Strain/Indicator: WP2UVRA, Metabolic Activation: RAT LIVER S-9, PHENOBARBITAL AND BETA-NAPHTHOFLAVONE, Method: GAS EXPOSURE inactive; negative | Test System: MOUSE LYMPHOMA, Strain/Indicator: L5178Y (TK+/TK-), Metabolic Activation: NONE, Method: MICROTITER inactive; negative | Test System: MOUSE LYMPHOMA, Strain/Indicator: L5178Y (TK+/TK-), Metabolic Activation: NONE, Method: SUSPENSION/PLATE inactive; negative | Test System: MOUSE LYMPHOMA, Strain/Indicator: L5178Y (TK+/TK-), Metabolic Activation: RAT LIVER S-9, PHENOBARBITAL AND 5,6-BENZOFLAVONE (2 OR 5%), Method: MICROTITER inactive; negative | Test System: MOUSE LYMPHOMA, Strain/Indicator: L5178Y (TK+/TK-), Metabolic Activation: RAT, LIVER, S-9, AROCLOR 1254, Method: SUSPENSION/PLATE inactive; negative
